From ChEMBL document CHEMBL1201861, “Genomics of Drug Sensitity in Cancer screening data, Wellcome Trust Sanger Institute”
pIC50: −log10 of the molar value.

Key:
Assay in all cases: cells
Type in all cases: functional, cell-based
Conditions in all cases: Homo sapiens
BV-173 = test system: BV-173
Description: SANGER: Inhibition of human BV-173 cell growth in a cell viability assay.

COLO-829 = test system: COLO-829
Description: SANGER: Inhibition of human COLO-829 cell growth in a cell viability assay.

SW872 = test system: SW872;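 note: growth inhibition of SW872 cells, read out by a viability assay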
Description: SANGER: Inhibition of human SW872 cell growth in a cell viability assay.

NOMO-1 = test system: NOMO-1;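 note: growth inhibition of human NOMO-1 cells measured by a cell viability assay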
Description: SANGER: Inhibition of human NOMO-1 cell growth in a cell viability assay.

TGBC1TKB = test system: TGBC1TKB;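 note: growth inhibition of TGBC1TKB cells, read out by a cell viability assay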
Description: SANGER: Inhibition of human TGBC1TKB cell growth in a cell viability assay.

ES5 = test system: ES5;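 note: growth inhibition of human ES5 cells, read out by a cell viability assay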
Description: SANGER: Inhibition of human ES5 cell growth in a cell viability assay.

A3-KAW = test system: A3-KAW;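 note: growth inhibition of human A3-KAW cells, read out with a cell viability assay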
Description: SANGER: Inhibition of human A3-KAW cell growth in a cell viability assay.

NOS-1 = test system: NOS-1;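 note: growth inhibition of the human NOS-1 cell line, read out with a cell viability assay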
Description: SANGER: Inhibition of human NOS-1 cell growth in a cell viability assay.

CTB-1 = test system: CTB-1
Description: SANGER: Inhibition of human CTB-1 cell growth in a cell viability assay.

SW684 = test system: SW684;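 note: growth inhibition of human SW684 cells, measured by a cell viability assay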
Description: SANGER: Inhibition of human SW684 cell growth in a cell viability assay.

SW 954 = test system: SW 954;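 note: growth inhibition of SW954 human cancer cells, read out as cell viability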
Description: SANGER: Inhibition of human SW954 cell growth in a cell viability assay.

NCI-H69 = test system: NCI-H69;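 note: growth inhibition of the cell line, read out with a cell viability assay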
Description: SANGER: Inhibition of human NCI-H69 cell growth in a cell viability assay.

NB6 = test system: NB6;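 note: growth inhibition of NB6 cells, read out by a cell viability assay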
Description: SANGER: Inhibition of human NB6 cell growth in a cell viability assay.

TE-8 = test system: TE-8;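 note: growth inhibition of TE-8 cells, measured with a cell viability readout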
Description: SANGER: Inhibition of human TE-8 cell growth in a cell viability assay.

MFM-223 = test system: MFM-223
Description: SANGER: Inhibition of human MFM-223 cell growth in a cell viability assay.

K562 = test system: K562
Description: SANGER: Inhibition of human K-562 cell growth in a cell viability assay.

BE-13 = test system: BE-13;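 note: growth inhibition of human BE-13 cells, measured with a cell viability assay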
Description: SANGER: Inhibition of human BE-13 cell growth in a cell viability assay.

D-502MG = test system: D-502MG
Description: SANGER: Inhibition of human D-502MG cell growth in a cell viability assay.

HT = test system: HT
Description: SANGER: Inhibition of human HT cell growth in a cell viability assay.

LC-2-ad = test system: LC-2-ad;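 note: growth inhibition of human LC-2-ad cells, read out with a cell viability assay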
Description: SANGER: Inhibition of human LC-2-ad cell growth in a cell viability assay.

DMS-79 = test system: DMS-79;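 note: growth inhibition measured with a cell viability assay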
Description: SANGER: Inhibition of human DMS-79 cell growth in a cell viability assay.

TE-9 = test system: TE-9;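 note: cell growth inhibition, measured with a cell viability readout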
Description: SANGER: Inhibition of human TE-9 cell growth in a cell viability assay.

A4-Fuk = test system: A4-Fuk;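 note: growth inhibition of A4-Fuk cells, read out by a cell viability assay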
Description: SANGER: Inhibition of human A4-Fuk cell growth in a cell viability assay.

KG-1 = test system: KG-1;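 note: growth inhibition of KG-1 cells, read out by a cell viability assay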
Description: SANGER: Inhibition of human KG-1 cell growth in a cell viability assay.

VA-ES-BJ = test system: VA-ES-BJ;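 note: growth inhibition of the VA-ES-BJ cell line, read out by a cell viability assay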
Description: SANGER: Inhibition of human VA-ES-BJ cell growth in a cell viability assay.

NCI-H1092 = test system: NCI-H1092;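 note: cell growth inhibition measured with a cell viability assay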
Description: SANGER: Inhibition of human NCI-H1092 cell growth in a cell viability assay.

HAL-01 = test system: HAL-01;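 note: growth inhibition of human HAL-01 cells, read out with a cell viability assay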
Description: SANGER: Inhibition of human HAL-01 cell growth in a cell viability assay.

LB2241-RCC = test system: LB2241-RCC;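 note: cell viability assay measuring how strongly the cultured human renal carcinoma line is prevented from growing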
Description: SANGER: Inhibition of human LB2241-RCC cell growth in a cell viability assay.

EW-3 = test system: EW-3;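 note: cell viability assay read-out, IC50 reflects inhibition of growth of the EW-3 cells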
Description: SANGER: Inhibition of human EW-3 cell growth in a cell viability assay.

LOX IMVI = test system: LOX IMVI
Description: SANGER: Inhibition of human LOXIMVI cell growth in a cell viability assay.

no-10 = test system: no-10;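 note: growth inhibition of no-10 cells, read out with a cell viability assay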
Description: SANGER: Inhibition of human no-10 cell growth in a cell viability assay.

LU-139 = test system: LU-139
Description: SANGER: Inhibition of human LU-139 cell growth in a cell viability assay.

OS-RC-2 = test system: OS-RC-2;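 note: growth inhibition of human OS-RC-2 cells, measured by a cell viability assay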
Description: SANGER: Inhibition of human OS-RC-2 cell growth in a cell viability assay.

DU-4475 = test system: DU-4475
Description: SANGER: Inhibition of human DU-4475 cell growth in a cell viability assay.

TE-11 = test system: TE-11;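 note: growth inhibition of human TE-11 cells, read out by a cell viability assay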
Description: SANGER: Inhibition of human TE-11 cell growth in a cell viability assay.

MPP-89 = test system: MPP-89;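 note: growth inhibition of human MPP-89 cells, read out with a cell viability assay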
Description: SANGER: Inhibition of human MPP-89 cell growth in a cell viability assay.

ACN = test system: ACN;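 note: growth inhibition of the human ACN cell line, read out via cell viability testing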
Description: SANGER: Inhibition of human ACN cell growth in a cell viability assay.

ES7 = test system: ES7;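 note: growth inhibition of cultured human ES7 cells, read out as cell viability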
Description: SANGER: Inhibition of human ES7 cell growth in a cell viability assay.

PSN1 = test system: PSN1;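 note: suppression of growth of human PSN1 cells, read out by a cell viability assay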
Description: SANGER: Inhibition of human PSN1 cell growth in a cell viability assay.

NCI-H446 = test system: NCI-H446;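 note: growth inhibition of NCI-H446 cells determined by a cell viability assay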
Description: SANGER: Inhibition of human NCI-H446 cell growth in a cell viability assay.

LXF-289 cell line = test system: LXF-289 cell line
Description: SANGER: Inhibition of human LXF-289 cell growth in a cell viability assay.

NCI-H2126 = test system: NCI-H2126;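 note: growth inhibition of the cancer cell line, determined with a cell viability readout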
Description: SANGER: Inhibition of human NCI-H2126 cell growth in a cell viability assay.

HCC2218 = test system: HCC2218;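 note: cell viability assay read-out, with IC50 given as the concentration that inhibits growth of the cell line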
Description: SANGER: Inhibition of human HCC2218 cell growth in a cell viability assay.

SCH = test system: SCH;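 note: growth inhibition of human SCH cells, read out in a cell viability assay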
Description: SANGER: Inhibition of human SCH cell growth in a cell viability assay.

NCI-H226 = test system: NCI-H226;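 note: cell viability read-out used to gauge growth inhibition of the cells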
Description: SANGER: Inhibition of human NCI-H226 cell growth in a cell viability assay.

SK-UT-1 = test system: SK-UT-1;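 note: growth inhibition of SK-UT-1 cells, measured by a cell viability assay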
Description: SANGER: Inhibition of human SK-UT-1 cell growth in a cell viability assay.

MFH-ino = test system: MFH-ino;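 note: growth inhibition of human MFH-ino cells, read out by a cell viability assay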
Description: SANGER: Inhibition of human MFH-ino cell growth in a cell viability assay.

COLO-824 = test system: COLO-824
Description: SANGER: Inhibition of human COLO-824 cell growth in a cell viability assay.

TE-5 = test system: TE-5;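 note: inhibition of cell growth, read out by a cell viability assay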
Description: SANGER: Inhibition of human TE-5 cell growth in a cell viability assay.

ETK-1 = test system: ETK-1;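 note: growth inhibition of human ETK-1 cells, read out with a cell viability assay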
Description: SANGER: Inhibition of human ETK-1 cell growth in a cell viability assay.

TE-1 = test system: TE-1;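 note: growth inhibition of the human TE-1 cell line, read out with a cell viability assay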
Description: SANGER: Inhibition of human TE-1 cell growth in a cell viability assay.

CTV-1 = test system: CTV-1;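 note: growth inhibition of the cell line, read out with a cell viability assay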
Description: SANGER: Inhibition of human CTV-1 cell growth in a cell viability assay.

DJM-1 = test system: DJM-1;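 note: growth inhibition of human DJM-1 cells, read out by a cell viability assay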
Description: SANGER: Inhibition of human DJM-1 cell growth in a cell viability assay.

SK-MEL-2 = test system: SK-MEL-2;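 note: growth inhibition of human SK-MEL-2 cells measured with a cell viability assay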
Description: SANGER: Inhibition of human SK-MEL-2 cell growth in a cell viability assay.

NCI-H82 = test system: NCI-H82;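 note: growth inhibition of NCI-H82 cells, measured with a cell viability readout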
Description: SANGER: Inhibition of human NCI-H82 cell growth in a cell viability assay.

COLO-800 = test system: COLO-800;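 note: growth inhibition of COLO-800 cells, read out with a cell viability assay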
Description: SANGER: Inhibition of human COLO-800 cell growth in a cell viability assay.

IST-MEL1 = test system: IST-MEL1;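 note: growth inhibition of the cell line, read out with a cell viability assay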
Description: SANGER: Inhibition of human IST-MEL1 cell growth in a cell viability assay.

RXF 393 = test system: RXF 393;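 note: growth inhibition of human RXF 393 cells, read out with a cell viability assay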
Description: SANGER: Inhibition of human RXF393 cell growth in a cell viability assay.

BB49-HNC = test system: BB49-HNC;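 note: cell viability assay read-out, reported as inhibition of BB49-HNC cell growth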
Description: SANGER: Inhibition of human BB49-HNC cell growth in a cell viability assay.

KGN = test system: KGN;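 note: growth inhibition of KGN cells, read out with a cell viability assay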
Description: SANGER: Inhibition of human KGN cell growth in a cell viability assay.

NKM-1 = test system: NKM-1;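 note: growth inhibition of NKM-1 cells, read out with a cell viability assay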
Description: SANGER: Inhibition of human NKM-1 cell growth in a cell viability assay.

LB771-HNC = test system: LB771-HNC
Description: SANGER: Inhibition of human LB771-HNC cell growth in a cell viability assay.

CW-2 = test system: CW-2
Description: SANGER: Inhibition of human CW-2 cell growth in a cell viability assay.

LS-513 = test system: LS-513
Description: SANGER: Inhibition of human LS-513 cell growth in a cell viability assay.

NCI-H510A = test system: NCI-H510A
Description: SANGER: Inhibition of human NCI-H510A cell growth in a cell viability assay.

KARPAS-299 = test system: KARPAS-299
Description: SANGER: Inhibition of human KARPAS-299 cell growth in a cell viability assay.

C/C=C(/C)C(=O)O[C@H]1C(C)=C2[C@H]([C@@H]1OC(=O)CCCCCCC)[C@@](C)(OC(C)=O)C[C@H](OC(=O)CCC)[C@@]1(O)[C@H]2OC(=O)[C@@]1(C)O [THAPSIGARGIN]
pIC50 (BV-173): 8.55 | pIC50 (COLO-829): 7.53 | pIC50 (SW872): 8.24 | pIC50 (NOMO-1): < 6.29 | pIC50 (TGBC1TKB): 9.29 | pIC50 (ES5): < 6.29 | pIC50 (A3-KAW): 8.70 | pIC50 (NOS-1): > 8.70 | pIC50 (CTB-1): 7.77 | pIC50 (SW684): < 6.29 | pIC50 (SW 954): 7.81 | pIC50 (NCI-H69): 7.25 | pIC50 (NB6): 8.34 | pIC50 (TE-8): 8.86 | pIC50 (MFM-223): < 6.29 | pIC50 (K562): 6.52 | pIC50 (BE-13): 8.13 | pIC50 (D-502MG): 6.46 | pIC50 (HT): 8.24 | pIC50 (LC-2-ad): 8.33 | pIC50 (DMS-79): < 6.29 | pIC50 (TE-9): 7.88 | pIC50 (A4-Fuk): > 8.70 | pIC50 (KG-1): 7.17 | pIC50 (VA-ES-BJ): 7.74 | pIC50 (NCI-H1092): < 6.29 | pIC50 (HAL-01): 6.52 | pIC50 (LB2241-RCC): 7.18 | pIC50 (EW-3): 6.93 | pIC50 (LOX IMVI): 8.53 | pIC50 (no-10): < 6.29 | pIC50 (LU-139): 7.47 | pIC50 (OS-RC-2): 7.61 | pIC50 (DU-4475): 8.22 | pIC50 (TE-11): 8.04 | pIC50 (MPP-89): 7.70 | pIC50 (ACN): 8.33 | pIC50 (ES7): 7.68 | pIC50 (PSN1): > 8.70 | pIC50 (NCI-H446): 7.45 | pIC50 (LXF-289 cell line): > 8.70 | pIC50 (NCI-H2126): 7.10 | pIC50 (HCC2218): 7.23 | pIC50 (SCH): < 6.29 | pIC50 (NCI-H226): 8.62 | pIC50 (SK-UT-1): 7.63 | pIC50 (MFH-ino): 8.88 | pIC50 (COLO-824): 7.19 | pIC50 (TE-5): < 6.29 | pIC50 (ETK-1): > 8.70 | pIC50 (TE-1): 7.66 | pIC50 (CTV-1): 8.28 | pIC50 (DJM-1): 7.26 | pIC50 (SK-MEL-2): > 8.70 | pIC50 (NCI-H82): 7.51 | pIC50 (COLO-800): 7.29 | pIC50 (IST-MEL1): 9.10 | pIC50 (RXF 393): < 6.29 | pIC50 (BB49-HNC): < 6.29 | pIC50 (KGN): > 8.70 | pIC50 (NKM-1): 8.21 | pIC50 (LB771-HNC): 7.19 | pIC50 (CW-2): < 6.29 | pIC50 (LS-513): 6.81 | pIC50 (NCI-H510A): 7.44 | pIC50 (KARPAS-299): 7.45

C/C(O)=C(\C#N)C(=O)Nc1cc(Br)ccc1Br
pIC50 (BV-173): < 4.80 | pIC50 (COLO-829): < 4.80 | pIC50 (SW872): < 4.80 | pIC50 (NOMO-1): < 4.80 | pIC50 (TGBC1TKB): < 4.80 | pIC50 (ES5): < 4.80 | pIC50 (A3-KAW): < 4.80 | pIC50 (NOS-1): < 4.80 | pIC50 (CTB-1): < 4.80 | pIC50 (SW684): < 4.80 | pIC50 (SW 954): < 4.80 | pIC50 (NCI-H69): < 4.80 | pIC50 (NB6): < 4.80 | pIC50 (TE-8): < 4.80 | pIC50 (MFM-223): < 4.80 | pIC50 (K562): < 4.80 | pIC50 (BE-13): < 4.80 | pIC50 (D-502MG): < 4.80 | pIC50 (HT): < 4.80 | pIC50 (LC-2-ad): < 4.80 | pIC50 (DMS-79): < 4.80 | pIC50 (TE-9): < 4.80 | pIC50 (A4-Fuk): < 4.80 | pIC50 (KG-1): < 4.80 | pIC50 (VA-ES-BJ): < 4.80 | pIC50 (NCI-H1092): < 4.80 | pIC50 (HAL-01): < 4.80 | pIC50 (LB2241-RCC): < 4.80 | pIC50 (EW-3): < 4.80 | pIC50 (LOX IMVI): < 4.80 | pIC50 (no-10): < 4.80 | pIC50 (LU-139): < 4.80 | pIC50 (OS-RC-2): < 4.80 | pIC50 (DU-4475): < 4.80 | pIC50 (TE-11): < 4.80 | pIC50 (MPP-89): < 4.80 | pIC50 (ACN): < 4.80 | pIC50 (ES7): < 4.80 | pIC50 (PSN1): < 4.80 | pIC50 (NCI-H446): < 4.80 | pIC50 (LXF-289 cell line): < 4.80 | pIC50 (NCI-H2126): < 4.80 | pIC50 (HCC2218): < 4.80 | pIC50 (SCH): < 4.80 | pIC50 (NCI-H226): < 4.80 | pIC50 (SK-UT-1): < 4.80 | pIC50 (MFH-ino): < 4.80 | pIC50 (COLO-824): < 4.80 | pIC50 (TE-5): < 4.80 | pIC50 (ETK-1): < 4.80 | pIC50 (TE-1): < 4.80 | pIC50 (CTV-1): < 4.80 | pIC50 (DJM-1): < 4.80 | pIC50 (SK-MEL-2): < 4.80 | pIC50 (NCI-H82): < 4.80 | pIC50 (COLO-800): < 4.80 | pIC50 (IST-MEL1): < 4.80 | pIC50 (RXF 393): < 4.80 | pIC50 (BB49-HNC): < 4.80 | pIC50 (KGN): < 4.80 | pIC50 (NKM-1): < 4.80 | pIC50 (LB771-HNC): < 4.80 | pIC50 (CW-2): < 4.80 | pIC50 (LS-513): < 4.80 | pIC50 (NCI-H510A): < 4.80 | pIC50 (KARPAS-299): < 4.80
